The conditions of test [1]: anaerobic saturated solution in saline infused at 100 nmol/min.
The subject of the next test is outdated red blood cells. Description: Organ chamber bioassay of vasodilator response at low pO2, outdated red blood cells (Example V). It counts as cell-based. The settings on record: for relaxations: 1:250 molar ratio NO or nitrite to hemoglobin, deoxygenated with argon, then oxygenated by air, FIG. 3. The text has this: Samples from each set were deoxygenated by bubbling argon gas therethrough and then admixed with PBS, PBS with NO dissolved therein or PBS with sodium nitrite dissolved therein. The treatments loaded the red blood cells with 1:250 molar ratio NO or nitrite to hemoglobin. The red blood cells were then oxygenated by exposure to air.

The subject of the next test is Red cells. Description: Storage of red cells incubated with NO at weekly intervals (Example VI). It counts as cell-based. As to conditions: 1:250 molar ratio NO to hemoglobin, 10 minutes at weekly intervals; at 8 weeks. The procedure: Red cells are incubated at a molar ratio of 1:250 NO to hemoglobin for 10 minutes at weekly intervals. At 8 weeks, NO levels and vasodilator response are preserved.

A short description of test [2]: Infusion in patient with unstable angina (Example II). It counts as in vivo, human. The text has this: A person is admitted to a hospital with unstable angina. The patient is given I.V. nitroglycerin, heparin and a beta blocker. However, the patient continues to experience chest pain at rest. The patient's normal NO level is known from past testing. […] Infusion at a rate of 5 nmol/min of NO in 0.9% NaCl is effected. The chest pain resolves.

A short description of test [3]: Transfusion of NO-doped blood unit in patient with severe coronary artery disease (Example VII). The settings on record: person; second blood unit doped with NO, 1:250 molar ratio of NO to hemoglobin. It counts as in vivo, human.
Test [4] in a line: Infusion in patient with primary pulmonary hypertension class II (Example III). Type of test: in vivo, human. The text has this: A person with primary pulmonary hypertension class II presents complaining with shortness of breath. The patient's normal NO level is know from prior testing. […] Infusion of NO in 0.9% NaCl at a rate of 5 nmol/min of NO is effected. The shortness of breath symptom resolves. After three days of therapy, pulmonary artery pressure has dropped 5 mm of mercury.

In the next test the target is hemoglobin (Homo sapiens, UniProt P68871+P69905). As to conditions: PBS pH 7.4, 300 μM nitrite, heme 1 mM; compared to SNO-oxyhemoglobin samples.
hemoglobin, sequence (P69905 2-142 limits assumed): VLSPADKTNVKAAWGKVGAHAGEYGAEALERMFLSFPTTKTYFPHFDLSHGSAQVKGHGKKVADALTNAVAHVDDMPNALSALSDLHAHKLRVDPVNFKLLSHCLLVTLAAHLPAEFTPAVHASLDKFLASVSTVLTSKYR
hemoglobin, sequence (P68871 2-147 limits assumed): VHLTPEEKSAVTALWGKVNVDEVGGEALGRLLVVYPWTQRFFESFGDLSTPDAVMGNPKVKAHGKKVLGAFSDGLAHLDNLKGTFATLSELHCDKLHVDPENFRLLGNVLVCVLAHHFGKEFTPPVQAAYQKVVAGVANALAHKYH
Test [5] has as its system native fresh red blood cells. The method, then:
The samples were deoxygenated by placing them in a bioassay bath at low pO2. Then, in paired samples, sodium nitrite (1:200 molar ratio of nitite to hemoglobin in phosphate buffered saline) was added to the deoxygenated red blood cells for 10 minutes. The samples were then re-oxygenated by reintroducing air followed by shaking.

Procedure for hemoglobin: For assay by EPR, spectroscopy was carried out as described in Gow, A. J., et al, Proc. Natl. Acad. Scie. […] SNO-oxyhemoglobin samples (0.5 mM protein) for comparison were prepared as described in Jia, L., et al, Nature, 380, 221-226 (1996).
Comparison was to SNO-oxyhemoglobin samples (0.5 mM protein) prepared as described in Jia, L., et al, Nature 380, 221-226 (1996).

As to `O=NO` [sodium nitrite], the oxygen delivery result in test [1] is on record as “Improved”. Also, the vasodilator response entry with outdated red blood cells (1:200 molar ratio nitrite to hemoglobin in PBS, added to deoxygenated cells for 10 minutes, then re-oxygenated, FIG. 2) is reported as “normalize”.

Turning to `[N]=O` [NO, nitric oxide], in the test on Red cells, the vasodilator response result was “preserved”. Also, the chest pain result in test [2] (person, unstable angina, infusion 5 nmol/min of NO in 0.9% NaCl) is given as “resolves”. In addition, in the test with outdated red blood cells, the relaxations entry is “improved and effectively normalized”. The “chest pain on transfusion” value in test [3] is reported as “not experienced”. Moreover, the “drop of pulmonary artery pressure” value in test [4] (after three days of therapy, NO 5 nmol/min) is recorded as 5 mm of mercury. Also, the “shortness of breath symptom” value in test [4] (person, infusion of NO in 0.9% NaCl at 5 nmol/min) is recorded as “resolves”.

`O=NO` [nitrite]: the chest pain entry in test [2] (nitrite additionally given at 100 nmol/min with the NO infusion) is given as “resolves more quickly”. In addition, the “oxygen delivery improving activity identified with NO” value on hemoglobin is “facilitated”. Besides, the vasodilator response entry in test [5] is reported as “no effect”. In the test with outdated red blood cells, the relaxations entry was “improved and effectively normalized”.

Values taken from US20060088942A1, “Measuring nitric oxide in blood gases and treatments based thereon” (priority 2002, published 2006).
